# Laboratory results reported in PubChem BioAssay (NCI).
#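 Interpolation was linear, between the two tested concentrations surrounding the appropriate level; five concentrations were tested over 48 hours in 96-well plates. TGI marks complete inhibition of growth.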
# Assays:
# Assay in all cases: growth of human tumour cells (NCI), 48 h
# [1] = test system: UACC-257 melanoma
# [2] = test system: NCI-H460 lung
# [3] = test system: UACC-62 melanoma
# [4] = test system: SNB-19 CNS
# [5] = test system: SF-268 CNS
# [6] = test system: HCT-15 colon
# [7] = test system: U251 CNS
# [8] = test system: DU-145 prostate
# [9] = test system: MDA-N
# [10] = test system: SF-295 CNS
# [11] = test system: NCI-H522 lung
# [12] = test system: HT29 colon
# [13] = test system: HOP-62 NSCLC
# [14] = test system: HCC-2998 colon
# [15] = test system: RXF 393 renal
# [16] = test system: A549 NSCLC
# [17] = test system: CCRF-CEM leukemia
# [18] = test system: NCI-H23 lung
# [19] = test system: IGROV1 ovarian
# [20] = test system: NCI/ADR-RES ovarian
# [21] = test system: MCF7 breast
# [22] = test system: EKVX NSCLC
# [23] = test system: SF-539 CNS
# [24] = test system: OVCAR-4 ovarian
# [25] = test system: T-47D breast
# [26] = test system: ACHN renal
# [27] = test system: HOP-92 NSCLC
# [28] = test system: COLO 205 colon
# [29] = test system: HL-60(TB) leukemia
# [30] = test system: 786-0 renal
# [31] = test system: OVCAR-3 ovarian
# [32] = test system: RPMI-8226 leukemia
# [33] = test system: PC-3 prostate
# [34] = test system: BT-549 breast
# [35] = test system: SK-MEL-5 melanoma
# [36] = test system: MALME-3M melanoma
# [37] = test system: NCI-H226 lung
# [38] = test system: MOLT-4 leukemia
# [39] = test system: SW-620 colon
# [40] = test system: UO-31 renal
# [41] = test system: OVCAR-8 ovarian
# [42] = test system: SR leukemia
# [43] = test system: MDA-MB-435
# [44] = test system: SK-OV-3 ovarian
# [45] = test system: HCT-116 colon
# [46] = test system: LOX IMVI melanoma
# [47] = test system: HS 578T breast
# [48] = test system: MDA-MB-231 breast
# [49] = test system: KM12 colon
# [50] = test system: SK-MEL-28 melanoma
# [51] = test system: CAKI-1 renal
# [52] = test system: A498 renal
# [53] = test system: SNB-75 CNS
# [54] = test system: K-562 leukemia
# [55] = test system: OVCAR-5 ovarian
# [56] = test system: M14 melanoma
# [57] = test system: SK-MEL-2 melanoma
# [58] = test system: TK-10 renal
# [59] = test system: SN12C renal
# [60] = test system: SNB-78 CNS
# [61] = test system: LXFL 529 NSCLC
# [62] = test system: KM20L2 colon
# [63] = test system: DMS 114 small cell lung
# [64] = test system: M19-MEL melanoma
# [65] = test system: DMS 273 small cell lung
# [66] = test system: DLD-1 colon
smiles,measurement,setting,value
Cc1ccc(S(=O)(=O)NC(=O)NCC(=O)NCC(=O)O)cc1,TGI,[1],> 100 µM
same,TGI,[2],> 100 µM
same,TGI,[3],> 100 µM
same,TGI,[4],> 100 µM
same,TGI,[5],> 100 µM
same,TGI,[6],> 100 µM
same,TGI,[7],> 100 µM
same,TGI,[8],> 100 µM
same,TGI,[9],> 100 µM
same,TGI,[10],> 100 µM
same,TGI,[11],> 100 µM
same,TGI,[12],> 100 µM
same,TGI,[13],> 100 µM
same,TGI,[14],> 100 µM
same,TGI,[15],> 100 µM
same,TGI,[16],> 100 µM
same,TGI,[17],> 100 µM
same,TGI,[18],> 100 µM
same,TGI,[19],> 100 µM
same,TGI,[20],> 100 µM
same,TGI,[21],> 100 µM
same,TGI,[22],> 100 µM
same,TGI,[23],> 100 µM
same,TGI,[24],> 100 µM
same,TGI,[25],> 100 µM
same,TGI,[26],> 100 µM
same,TGI,[27],> 100 µM
same,TGI,[28],> 100 µM
same,TGI,[29],> 100 µM
same,TGI,[30],> 100 µM
same,TGI,[31],> 100 µM
same,TGI,[32],> 100 µM
same,TGI,[33],> 100 µM
same,TGI,[34],> 100 µM
same,TGI,[35],> 100 µM
same,TGI,[36],> 100 µM
same,TGI,[37],> 100 µM
same,TGI,[38],> 100 µM
same,TGI,[39],> 100 µM
same,TGI,[40],> 100 µM
same,TGI,[41],> 100 µM
same,TGI,[42],> 100 µM
same,TGI,[43],> 100 µM
same,TGI,[44],> 100 µM
same,TGI,[45],> 100 µM
same,TGI,[46],> 100 µM
same,TGI,[47],> 100 µM
same,TGI,[48],> 100 µM
same,TGI,[49],> 100 µM
same,TGI,[50],> 100 µM
same,TGI,[51],> 100 µM
same,TGI,[52],> 100 µM
same,TGI,[53],> 100 µM
same,TGI,[54],> 100 µM
same,TGI,[55],> 100 µM
same,TGI,[56],> 100 µM
same,TGI,[57],> 100 µM
same,TGI,[58],> 100 µM
COc1ccc2nc3cc([N+](=O)[O-])ccc3c(NNc3ccc(Cl)cc3)c2c1,TGI,[1],> 100 µM
same,TGI,[2],> 59 µM
same,TGI,[3],> 65.9 µM
same,TGI,[4],> 100 µM
same,TGI,[5],> 100 µM
same,TGI,[6],> 100 µM
same,TGI,[7],74.6 µM
same,TGI,[8],> 96.5 µM
same,TGI,[9],> 100 µM
same,TGI,[10],> 100 µM
same,TGI,[11],83.7 µM
same,TGI,[12],43.5 µM
same,TGI,[13],> 78.8 µM
same,TGI,[14],60.6 µM
same,TGI,[15],> 83.4 µM
same,TGI,[16],> 85 µM
same,TGI,[17],80.1 µM
same,TGI,[18],> 100 µM
same,TGI,[19],45.1 µM
same,TGI,[20],> 100 µM
same,TGI,[21],> 100 µM
same,TGI,[22],99 µM
same,TGI,[59],98 µM
same,TGI,[23],97.5 µM
same,TGI,[24],> 100 µM
same,TGI,[25],> 100 µM
same,TGI,[26],> 82.2 µM
same,TGI,[27],57.9 µM
same,TGI,[28],60.8 µM
same,TGI,[29],> 73.8 µM
same,TGI,[30],53.6 µM
same,TGI,[31],> 20.5 µM
same,TGI,[32],78.7 µM
same,TGI,[33],> 77.5 µM
same,TGI,[34],> 92.1 µM
same,TGI,[35],36.2 µM
same,TGI,[36],> 100 µM
same,TGI,[37],26 µM
same,TGI,[38],> 92.4 µM
same,TGI,[39],> 76.3 µM
same,TGI,[40],> 100 µM
same,TGI,[41],65.1 µM
same,TGI,[42],37.7 µM
same,TGI,[43],> 100 µM
same,TGI,[44],> 100 µM
same,TGI,[45],> 55.7 µM
same,TGI,[46],> 100 µM
same,TGI,[47],> 100 µM
same,TGI,[48],> 73.1 µM
same,TGI,[49],> 100 µM
same,TGI,[50],> 100 µM
same,TGI,[51],2.26 µM
same,TGI,[52],0.221 µM
same,TGI,[53],> 100 µM
same,TGI,[54],> 68.3 µM
same,TGI,[55],> 100 µM
same,TGI,[56],> 92.5 µM
same,TGI,[57],59.4 µM
same,TGI,[58],5.16 µM
O=C(CCc1ccccc1)On1nnc2ccccc2c1=O,TGI,[1],> 100 µM
same,TGI,[2],> 100 µM
same,TGI,[3],> 100 µM
same,TGI,[4],> 100 µM
same,TGI,[5],> 100 µM
same,TGI,[6],> 100 µM
same,TGI,[7],> 100 µM
same,TGI,[10],> 100 µM
same,TGI,[11],> 100 µM
same,TGI,[12],> 100 µM
same,TGI,[13],> 100 µM
same,TGI,[14],> 100 µM
same,TGI,[15],> 100 µM
same,TGI,[16],> 100 µM
same,TGI,[17],> 100 µM
same,TGI,[18],> 100 µM
same,TGI,[19],> 100 µM
same,TGI,[60],> 100 µM
same,TGI,[61],> 100 µM
same,TGI,[22],> 100 µM
same,TGI,[59],> 100 µM
same,TGI,[23],> 100 µM
same,TGI,[24],> 100 µM
same,TGI,[26],> 100 µM
same,TGI,[27],> 100 µM
same,TGI,[28],> 100 µM
same,TGI,[62],> 100 µM
same,TGI,[29],> 100 µM
same,TGI,[63],> 100 µM
same,TGI,[30],> 100 µM
same,TGI,[31],> 100 µM
same,TGI,[64],> 100 µM
same,TGI,[35],> 100 µM
same,TGI,[36],> 100 µM
same,TGI,[37],> 100 µM
same,TGI,[38],> 100 µM
same,TGI,[39],> 100 µM
same,TGI,[40],> 100 µM
same,TGI,[41],> 100 µM
same,TGI,[42],> 100 µM
same,TGI,[65],> 100 µM
same,TGI,[44],> 100 µM
same,TGI,[45],> 100 µM
same,TGI,[46],> 100 µM
same,TGI,[49],> 100 µM
same,TGI,[51],> 100 µM
same,TGI,[52],> 100 µM
same,TGI,[53],> 100 µM
same,TGI,[66],> 100 µM
same,TGI,[54],> 100 µM
same,TGI,[55],> 100 µM
same,TGI,[56],> 100 µM
same,TGI,[57],> 100 µM
same,TGI,[58],96.2 µM
